Data published in patent US20260078120A1, “SUBSTITUTED PYRIDOPYRIMIDINONES” (MIRATI THERAPEUTICS, INC., priority 2022, published 2026).

Key:
[1] = system: SKBR3 (PI3Kα wild type) cells; assay: CellTiter-Glo 2.0 luminescent cell viability assay, 72 hours, SKBR3 cells; assay type: cell-based; conditions: Homo sapiens, SK-BR-3, 72 h, SKBR3 (PI3Kα wild type) cells, CellTiter-Glo, approximately 72 hours; read-out: SKBR3 (WT) Viability IC50
Method in brief: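 Viability measured via CTG luminescence following roughly 72 hours of compound exposure at 37° C. Dosing used a 10 um starting concentration diluted 1:4 over 10 points; percent-of-vehicle data fitted with a variable-slope four-parameter model for IC50.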

[2] = system: T47D (PI3Kα H1047R mutant) cells; assay: CellTiter-Glo 2.0 luminescent cell viability assay, 72 hours, T47D cells; assay type: cell-based; conditions: Homo sapiens, T47D, 72 h, T47D (PI3Kα H1047R mutant) cells, CellTiter-Glo, approximately 72 hours; read-out: T47D (H1047R mutant) Viability IC50
Method in brief: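 Cells seeded at 1000 per well overnight were dosed with a 10-concentration, 1:4 series starting at 10 µM and incubated ~72 h at 37° C. Viability was read by CellTiter-Glo 2.0 luminescence after 30 min at room temperature. IC50 came from four-parameter fits of percent vehicle control.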

Q: Which results are given for Cc1cc([C@@H](C)Nc2ccc(Cl)nc2C(=O)O)c2nc(N3CCN(c4ccc(F)cc4)C[C@H]3C)c(C#N)c(=O)n2c1 [Example 11-131, 6-chloro-3-(((R)-1-(3-cyano-2-((R)-4-(4-fluorophenyl)-2-methylpiperazin-1-yl)-7-methyl-4-oxo-4H-pyrido[1,2-a]pyrimidin-9-yl)ethyl)amino)picolinic acid]?
A: IC50 [1]: > 10000 nM; IC50 [2]: 310 nM

Q: Which IC50 [1] does the source give for Cc1cc([C@@H](C)Nc2ccc(Cl)nc2C(=O)O)c2nc(N3CCN(c4ccc(C#N)cc4C)CC3)c(C#N)c(=O)n2c1 [Example 11-132, (R)-6-chloro-3-((1-(3-cyano-2-(4-(4-cyano-2-methylphenyl)piperazin-1-yl)-7-methyl-4-oxo-4H-pyrido[1,2-a]pyrimidin-9-yl)ethyl)amino)picolinic acid] here?
A: > 10000 nM

Q: What about the IC50 [2] of the same compound?
A: 172 nM

Q: For Cc1cc([C@@H](C)Nc2ccc(Cl)nc2C(=O)O)c2nc(N3CCN(c4ccc(C#N)cc4C)CC3)c(C)c(=O)n2c1 [Example 11-133, (R)-6-chloro-3-((1-(2-(4-(4-cyano-2-methylphenyl)piperazin-1-yl)-3,7-dimethyl-4-oxo-4H-pyrido[1,2-a]pyrimidin-9-yl)ethyl)amino)picolinic acid], which IC50 [1] is on record?
A: 10000 nM

Q: What about the IC50 [2] of the same compound?
A: 174 nM

Q: Cc1cc([C@@H](C)Nc2ccccc2C(=O)O)c2nc(N3CC4CC(C3)N4c3ccc(C#N)cc3)c(C#N)c(=O)n2c1 [Example 11-134, 2-(((1R)-1-(3-cyano-2-(6-(4-cyanophenyl)-3,6-diazabicyclo[3.1.1]heptan-3-yl)-7-methyl-4-oxo-4H-pyrido[1,2-a]pyrimidin-9-yl)ethyl)amino)benzoic acid] was tested. Which IC50 [1] did it give?
A: > 10000 nM

Q: What about the IC50 [2] of the same compound?
A: 605 nM

Q: With Cc1cc([C@@H](C)Nc2ccccc2C(=O)O)c2nc(N3CC4CC(C3)N4c3ccc(C#N)cc3)c(C)c(=O)n2c1 [Example 11-135, 2-(((1R)-1-(2-(6-(4-cyanophenyl)-3,6-diazabicyclo[3.1.1]heptan-3-yl)-3,7-dimethyl-4-oxo-4H-pyrido[1,2-a]pyrimidin-9-yl)ethyl)amino)benzoic acid] as the compound, how does the IC50 [1] read?
A: > 10000 nM

Q: What about the IC50 [2] of the same compound?
A: 169 nM

Q: What does the source list for Cc1cc([C@@H](C)Nc2ccccc2C(=O)O)c2nc(N3CC(F)(F)C(F)(F)C3)c(C#N)c(=O)n2c1 [Example 11-136, (R)-2-((1-(3-cyano-7-methyl-4-oxo-2-(3,3,4,4-tetrafluoropyrrolidin-1-yl)-4H-pyrido[1,2-a]pyrimidin-9-yl)ethyl)amino)benzoic acid]?
A: IC50 [1]: > 10000 nM; IC50 [2]: 162 nM

Q: With Cc1cc([C@@H](C)Nc2ccccc2C(=O)O)c2nc(N3Cc4nccnc4C3)c(C#N)c(=O)n2c1 [Example 11-137, (R)-2-((1-(3-cyano-2-(5,7-dihydro-6H-pyrrolo[3,4-b]pyrazin-6-yl)-7-methyl-4-oxo-4H-pyrido[1,2-a]pyrimidin-9-yl)ethyl)amino)benzoic acid] as the compound, how does the IC50 [1] read?
A: > 10000 nM

Q: And the IC50 [2]?
A: 688 nM

Q: How did the IC50 [1] turn out when Cc1cc([C@@H](C)Nc2ccccc2C(=O)O)c2nc(N3Cc4nccnc4C3)c(C)c(=O)n2c1 [Example 11-138, (R)-2-((1-(2-(5,7-dihydro-6H-pyrrolo[3,4-b]pyrazin-6-yl)-3,7-dimethyl-4-oxo-4H-pyrido[1,2-a]pyrimidin-9-yl)ethyl)amino)benzoic acid] was run?
A: > 10000 nM

Q: What about the IC50 [2] of the same compound?
A: 392 nM

Q: With Cc1cc([C@@H](C)Nc2ccc(Cl)nc2C(=O)O)c2nc(N3Cc4nccnc4C3)c(C)c(=O)n2c1 [Example 11-139, (R)-6-chloro-3-((1-(2-(5,7-dihydro-6H-pyrrolo[3,4-b]pyrazin-6-yl)-3,7-dimethyl-4-oxo-4H-pyrido[1,2-a]pyrimidin-9-yl)ethyl)amino)picolinic acid] as the compound, how does the IC50 [1] read?
A: > 10000 nM

Q: And the IC50 [2]?
A: 272 nM

Q: Which IC50 [1] does the source give for Cc1cc([C@@H](C)Nc2ccccc2C(=O)O)c2nc(N3CCC(F)(F)C3)c(C)c(=O)n2c1 [Example 11-140, (R)-2-((1-(2-(3,3-difluoropyrrolidin-1-yl)-3,7-dimethyl-4-oxo-4H-pyrido[1,2-a]pyrimidin-9-yl)ethyl)amino)benzoic acid] here?
A: > 10000 nM

Q: And the IC50 [2]?
A: 119 nM

Q: With Cc1cc([C@@H](C)Nc2ccncc2C(=O)O)c2nc(N3CCC(F)(F)CC3)c(C#N)c(=O)n2c1 [Example 11-142, (R)-4-((1-(3-cyano-2-(4,4-difluoropiperidin-1-yl)-7-methyl-4-oxo-4H-pyrido[1,2-a]pyrimidin-9-yl)ethyl)amino)nicotinic acid] as the compound, how does the IC50 [1] read?
A: > 10000 nM

Q: What about the IC50 [2] of the same compound?
A: > 10000 nM

Q: Which IC50 [1] does the source give for Cc1cc([C@@H](C)Nc2ccc(Cl)nc2C(=O)O)c2nc(N3CC4C(C3)C4(F)F)c(C#N)c(=O)n2c1 (stereo partly drawn) [Example 11-143, 6-chloro-3-(((1R)-1-(3-cyano-2-(6,6-difluoro-3-azabicyclo[3.1.0]hexan-3-yl)-7-methyl-4-oxo-4H-pyrido[1,2-a]pyrimidin-9-yl)ethyl)amino)picolinic acid] here?
A: > 10000 nM

Q: And the IC50 [2]?
A: 795 nM

Q: For Cc1cc([C@@H](C)Nc2ccnnc2)c2nc(N3CCC(F)(F)CC3)c(C#N)c(=O)n2c1 [Example 11-145, (R)-2-(4,4-difluoropiperidin-1-yl)-7-methyl-4-oxo-9-(1-(pyridazin-4-ylamino)ethyl)-4H-pyrido[1,2-a]pyrimidine-3-carbonitrile], which IC50 [1] is on record?
A: > 10000 nM

Q: And the IC50 [2]?
A: > 10000 nM

Q: For Cc1cc([C@@H](C)Nc2ccnnc2C(=O)O)c2nc(N3CCC(F)(F)CC3)c(C#N)c(=O)n2c1 [Example 11-146, (R)-4-((1-(3-cyano-2-(4,4-difluoropiperidin-1-yl)-7-methyl-4-oxo-4H-pyrido[1,2-a]pyrimidin-9-yl)ethyl)amino)pyridazine-3-carboxylic acid], which IC50 [1] is on record?
A: > 10000 nM

Q: And the IC50 [2]?
A: > 10000 nM

Q: Cc1cc([C@@H](C)Nc2ccc(Cl)nc2C(=O)O)c2nc(N3Cc4ccncc4C3)c(C#N)c(=O)n2c1 [Example 11-147, (R)-6-chloro-3-((1-(3-cyano-2-(1,3-dihydro-2H-pyrrolo[3,4-c]pyridin-2-yl)-7-methyl-4-oxo-4H-pyrido[1,2-a]pyrimidin-9-yl)ethyl)amino)picolinic acid] was tested. Which IC50 [1] did it give?
A: > 10000 nM

Q: And the IC50 [2]?
A: 1040 nM

Q: Cc1cc([C@@H](C)Nc2ccccc2C(=O)O)c2nc(C3=CCN(C)CC3)c(C)c(=O)n2c1 [Example 11-148, (R)-2-((1-(3,7-dimethyl-2-(1-methyl-1,2,3,6-tetrahydropyridin-4-yl)-4-oxo-4H-pyrido[1,2-a]pyrimidin-9-yl)ethyl)amino)benzoic acid] was tested. Which IC50 [1] did it give?
A: > 10000 nM

Q: What about the IC50 [2] of the same compound?
A: 1190 nM

Q: For Cc1cc([C@@H](C)Nc2ccccc2C(=O)O)c2nc(C3CCN(C)CC3)c(C)c(=O)n2c1 [Example 11-149, (R)-2-((1-(3,7-dimethyl-2-(1-methylpiperidin-4-yl)-4-oxo-4H-pyrido[1,2-a]pyrimidin-9-yl)ethyl)amino)benzoic acid], which IC50 [1] is on record?
A: > 10000 nM

Q: What about the IC50 [2] of the same compound?
A: > 10000 nM

Q: How did the IC50 [1] turn out when Cc1cc([C@@H](C)Nc2ccccc2C(=O)O)c2nc(N3CCN(C4CC4)CC3)c(C#N)c(=O)n2c1 [Example 11-150, (R)-2-((1-(3-cyano-2-(4-cyclopropylpiperazin-1-yl)-7-methyl-4-oxo-4H-pyrido[1,2-a]pyrimidin-9-yl)ethyl)amino)benzoic acid] was run?
A: > 10000 nM

Q: What about the IC50 [2] of the same compound?
A: 342 nM

Q: Which IC50 [1] does the source give for Cc1cc([C@@H](C)Nc2ccccc2C(=O)O)c2nc(N3CCN(C4CC4)CC3)c(C)c(=O)n2c1 [Example 11-151, (R)-2-((1-(2-(4-cyclopropylpiperazin-1-yl)-3,7-dimethyl-4-oxo-4H-pyrido[1,2-a]pyrimidin-9-yl)ethyl)amino)benzoic acid] here?
A: > 10000 nM

Q: And the IC50 [2]?
A: 347 nM

Q: What does the source list for Cc1cc([C@@H](C)Nc2ccccc2C(=O)O)c2nc(N3CCN(C4COC4)CC3)c(C#N)c(=O)n2c1 [Example 11-152, (R)-2-((1-(3-cyano-7-methyl-2-(4-(oxetan-3-yl)piperazin-1-yl)-4-oxo-4H-pyrido[1,2-a]pyrimidin-9-yl)ethyl)amino)benzoic acid]?
A: IC50 [1]: > 10000 nM; IC50 [2]: 4340 nM

Q: Which results are given for Cc1cc([C@@H](C)Nc2ccccc2C(=O)O)c2nc(N3CCN(C4COC4)CC3)c(C)c(=O)n2c1 [Example 11-153, (R)-2-((1-(3,7-dimethyl-2-(4-(oxetan-3-yl)piperazin-1-yl)-4-oxo-4H-pyrido[1,2-a]pyrimidin-9-yl)ethyl)amino)benzoic acid]?
A: IC50 [1]: > 10000 nM; IC50 [2]: 880 nM

Q: Which IC50 [1] does the source give for Cc1cc([C@@H](C)Nc2ccccc2C(=O)O)c2nc(N3CCN(CC(F)(F)F)CC3)c(C#N)c(=O)n2c1 [Example 11-154, (R)-2-((1-(3-cyano-7-methyl-4-oxo-2-(4-(2,2,2-trifluoroethyl)piperazin-1-yl)-4H-pyrido[1,2-a]pyrimidin-9-yl)ethyl)amino)benzoic acid] here?
A: > 10000 nM

Q: And the IC50 [2]?
A: 138 nM

Q: Which IC50 [1] does the source give for Cc1cc([C@@H](C)Nc2ccccc2C(=O)O)c2nc(NCC3(F)CC3)c(C#N)c(=O)n2c1 [Example 11-155, (R)-2-((1-(3-cyano-2-(((1-fluorocyclopropyl)methyl)amino)-7-methyl-4-oxo-4H-pyrido[1,2-a]pyrimidin-9-yl)ethyl)amino)benzoic acid] here?
A: > 10000 nM

Q: What about the IC50 [2] of the same compound?
A: 165 nM

Q: How did the IC50 [1] turn out when Cc1cc([C@@H](C)Nc2ccccc2C(=O)O)c2nc(NC[C@H]3CC3(F)F)c(C#N)c(=O)n2c1 [Example 11-156, 2-(((R)-1-(3-cyano-2-((((R)-2,2-difluorocyclopropyl)methyl)amino)-7-methyl-4-oxo-4H-pyrido[1,2-a]pyrimidin-9-yl)ethyl)amino)benzoic acid] was run?
A: > 10000 nM

Q: What about the IC50 [2] of the same compound?
A: 174 nM

Q: Cc1cc([C@@H](C)Nc2ccccc2C(=O)O)c2nc(NC[C@@H]3CC3(F)F)c(C#N)c(=O)n2c1 [Example 11-157, 2-(((R)-1-(3-cyano-2-((((S)-2,2-difluorocyclopropyl)methyl)amino)-7-methyl-4-oxo-4H-pyrido[1,2-a]pyrimidin-9-yl)ethyl)amino)benzoic acid] was tested. Which IC50 [1] did it give?
A: > 10000 nM

Q: And the IC50 [2]?
A: 221 nM
